In US10407422B2, “Triazolopyridine inhibitors of myeloperoxidase” (priority 2015, dated 2019):

Columns and labels:
myeloperoxidase (MPO) [1] = biological target: T1, myeloperoxidase (MPO) (Homo sapiens (Human), UniProt P05164); experiment: MPO chlorination assay (APF assay); assay type: biochemical; conditions: potency range class
Method: [formula] where A=minimal Y value (activity level of inhibited sample), B=maximal Y value (activity level of uninhibited sample), C=Log IC50, D=Hill Slope, x=concentration of inhibitor. MPO Chlorination Assay (APF Assay) MPO chlorination activity was measured in 100 mM KPi (pH 7.4) by utilizing the non-fluorescent reagent Aminophenyl fluorescein (APF, Invitrogen Cat. #A36003). APF is cleaved by (—OCl) to yield the fluorescent compound fluorescein. Reactions were carried out in 50 μL total volume by adding a 25 μL mixture of 200 pM myeloperoxidase and 120 mM NaCl to 100 nL inhibitor in 100% DMSO in a 384 well, non-binding surface clear bottom plate (Corning #3655). Enzyme, inhibitor, and chloride were preincubated for ten minutes at room temperature. After the ten minute preincubation, 25 μL of an APF mixture containing […], 120 mM NaCl and 10 μM H2O2 was added to the plate using the internal dispensing system of a Hammatsu FDSS 6000. Kinetic determinations were carried out immediately on the FDSS 6000 (3 minute kinetic read, 1 read every second, ex: 485 nm, em: 535 nm). IC50 values for inhibitors were calculated by taking the slope of the linear portion of the kinetic measurement (20 seconds to ˜80-120 secs). IC50 values were calculated by determining the slope of the linear portion of the kinetic trace […], and using that calculated slope to determine % inhibition occurring at each concentration of inhibitor using the following equation: [formula] where A=minimal Y value (activity level of inhibited sample), B=maximal Y value (activity level of uninhibited sample), C=Log IC50, D=Hill Slope, x=concentration of inhibitor. EPX Bromination Assay

myeloperoxidase (MPO) [2] = biological target: T1, myeloperoxidase (MPO); experiment: MPO peroxidation assay (Amplex Red assay); assay type: biochemical; conditions: potency range class
Method: MPO Peroxidation Assay (Amplex Red Assay) MPO peroxidation activity was measured in 100 mM KPi (pH 7.4) by utilizing the non-fluorescent reagent Amplex Red (Invitrogen Cat. #A12222) which can be oxidized to the highly fluorescent resorufin. Amplex Red is oxidized by the peroxidase action of MPO to resorufin. Reactions were carried out in 50 μL total volume by adding a 25 μL mixture of 200 pM myeloperoxidase and 40 nM H2O2(Sigma #349887) to 100 nL inhibitor in 100% DMSO in a 384 well Perkin Elmer Optiplate. Enzyme and compound were preincubated for ten minutes at room temperature. After the ten minute preincubation, 25 μL of an Amplex Red mixture containing 200 μM Amplex Red and 10 mM H2O2 was added to the plate. Kinetic determinations were carried out immediately on a Perkin Elmer Envision (15 minute kinetic read, Ex: 535 nm, Em: 590 nm). IC50 values were calculated by determining the slope of the linear portion of the kinetic trace (180-540 secs), and using that calculated slope to determine % inhibition occurring at each concentration of inhibitor using the following equation: [formula] where A=minimal Y value (activity level of inhibited sample), B=maximal Y value (activity level of uninhibited sample), C=Log IC50, D=Hill Slope, x=concentration of inhibitor. MPO Chlorination Assay (APF Assay)

T1 sequence (P05164 49-745): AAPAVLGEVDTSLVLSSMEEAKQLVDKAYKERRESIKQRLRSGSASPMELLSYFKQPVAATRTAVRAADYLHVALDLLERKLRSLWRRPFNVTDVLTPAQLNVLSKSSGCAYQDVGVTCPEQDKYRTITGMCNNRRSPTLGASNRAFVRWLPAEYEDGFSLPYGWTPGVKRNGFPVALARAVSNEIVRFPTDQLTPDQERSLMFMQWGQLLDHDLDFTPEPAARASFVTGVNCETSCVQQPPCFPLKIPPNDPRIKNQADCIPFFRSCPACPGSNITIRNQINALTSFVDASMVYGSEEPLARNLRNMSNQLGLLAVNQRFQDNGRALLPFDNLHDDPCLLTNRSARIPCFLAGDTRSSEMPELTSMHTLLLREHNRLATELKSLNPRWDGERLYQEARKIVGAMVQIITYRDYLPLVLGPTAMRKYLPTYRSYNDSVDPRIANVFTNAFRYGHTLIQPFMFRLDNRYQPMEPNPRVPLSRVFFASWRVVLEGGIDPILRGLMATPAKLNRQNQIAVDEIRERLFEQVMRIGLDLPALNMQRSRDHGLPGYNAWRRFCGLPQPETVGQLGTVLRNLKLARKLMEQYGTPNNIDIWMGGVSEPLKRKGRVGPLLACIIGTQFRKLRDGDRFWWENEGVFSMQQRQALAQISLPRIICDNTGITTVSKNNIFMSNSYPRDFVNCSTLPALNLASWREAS

| SMILES | IC50 (myeloperoxidase (MPO) [1]) [nM] | IC50 (myeloperoxidase (MPO) [2]) [nM] |
| --- | --- | --- |
| Nc1cc(Cc2cnn(Cc3cccc(C4CCNC4)c3)c2)c2nn[nH]c2n1 (stereo in doubt) [Example 191, 7-{[1-({3-[(3S)-Pyrrolidin-3-yl]phenyl}yl]methyl}-3H-[1,2,3]triazolo[4,5-b]pyridin-5-amine] | 1 to 100 | 1 to 100 |
| Cc1c(Cc2cc(N)nc3[nH]nnc23)cnn1-c1ccc(F)cc1 [Example 2, 7-((1-(4-Fluorophenyl)-5-methyl-1H-pyrazol-4-yl)methyl)-3H-triazolo[4,5-b]pyridin-5-amine] | 101 to 999 | 101 to 999 |
| Nc1cc(Cc2cnn(-c3cccc(F)c3)c2)c2nn[nH]c2n1 [Example 3, 7-((1-(3-Fluorophenyl)-1H-pyrazol-4-yl)methyl)-3H-[1,2,3]triazolo[4,5-b]pyridin-5-amine] | 101 to 999 | 1 to 100 |
| Nc1cc(Cc2cnn(-c3ccccc3F)c2)c2nn[nH]c2n1 [Example 4, 7-((1-(2-Fluorophenyl)-1H-pyrazol-4-yl)methyl)-3H-[1,2,3]triazolo[4,5-b]pyridin-5-amine] | 1 to 100 | 1 to 100 |
| Nc1cc(Cc2cnn(-c3ccccc3)n2)c2nn[nH]c2n1 [Example 6, 7-((2-Phenyl-2H-1,2,3-triazol-4-yl)methyl)-3H-[1,2,3]triazolo[4,5-b]pyridin-5-amine] | 101 to 999 | 101 to 999 |
| Nc1cc(Cc2cnn(-c3cccc(Cl)c3)c2)c2nn[nH]c2n1 [Example 7, 7-((1-(3-Chlorophenyl)-1H-pyrazol-4-yl)methyl)-3H-[1,2,3]triazolo[4,5-b]pyridin-5-amine] | 1 to 100 | 1 to 100 |
| Nc1cc(Cc2cnn(-c3cccc4ccccc34)c2)c2nn[nH]c2n1 [Example 9, 7-((1-(Naphthalen-1-yl)-1H-pyrazol-4-yl)methyl)-3H-[1,2,3]triazolo[4,5-b]pyridin-5-amine] | 1 to 100 | 1 to 100 |
| Cc1cc(-n2cc(Cc3cc(N)nc4[nH]nnc34)cn2)ccc1F [Example 10, 7-((1-(4-Fluoro-3-methylphenyl)-1H-pyrazol-4-yl)methyl)-3H-[1,2,3]triazolo[4,5-b]pyridin-5-amine] | 101 to 999 | 1 to 100 |
| Nc1cc(Cc2cnn(-c3cccc(-c4ccccc4)c3)c2)c2nn[nH]c2n1 [Example 11, 7-((1-([1,1′-Biphenyl]-3-yl)-1H-pyrazol-4-yl)methyl)-3H-[1,2,3]triazolo[4,5-b]pyridin-5-amine] | 1 to 100 | 1 to 100 |
| Nc1cc(Cc2cnn(-c3cccc(C(F)(F)F)c3)c2)c2nn[nH]c2n1 [Example 14, 7-((1-(3-(Trifluoromethyl)phenyl)-1H-pyrazol-4-yl)methyl)-3H-[1,2,3]triazolo[4,5-b]pyridin-5-amine] | 101 to 999 | 1 to 100 |
| Cc1ccnc(-n2cc(Cc3cc(N)nc4[nH]nnc34)cn2)c1 [Example 19, 7-((1-(4-Methylpyridin-2-yl)-1H-pyrazol-4-yl)methyl)-3H-[1,2,3]triazolo[4,5-b]pyridin-5-amine] | 1 to 100 | 1 to 100 |
| Cc1cccc(-n2cc(Cc3cc(N)nc4[nH]nnc34)cn2)n1 [Example 20, 7-((1-(6-Methylpyridin-2-yl)-1H-pyrazol-4-yl)methyl)-3H-[1,2,3]triazolo[4,5-b]pyridin-5-amine] | 1 to 100 | 1 to 100 |
| Nc1cc(Cc2cnn(-c3cccc(Cc4ccccc4)c3)c2)c2nn[nH]c2n1 [Example 21, 7-((1-(3-Benzylphenyl)-1H-pyrazol-4-yl)methyl)-3H-[1,2,3]triazolo[4,5-b]pyridin-5-amine] | 101 to 999 | 1 to 100 |
| Cc1ccccc1-n1cc(Cc2cc(N)nc3[nH]nnc23)cn1 [Example 24, 7-((1-(2-Methylphenyl)-1H-pyrazol-4-yl)methyl)-3H-[1,2,3]triazolo[4,5-b]pyridin-5-amine] | 1 to 100 | 101 to 999 |
| Cc1cccc(-n2cc(Cc3cc(N)nc4[nH]nnc34)cn2)c1 [Example 25, 7-((1-(3-Methylphenyl)-1H-pyrazol-4-yl)methyl)-3H-[1,2,3]triazolo[4,5-b]pyridin-5-amine] | 101 to 999 | 1 to 100 |
| Nc1cc(Cc2cnn(-c3ccccn3)c2)c2nn[nH]c2n1 [Example 31, 7-((1-(Pyridin-2-yl)-1H-pyrazol-4-yl)methyl)-3H-[1,2,3]triazolo[4,5-b]pyridin-5-amine] | 1 to 100 | 1 to 100 |
| Nc1cc(Cc2ccn(-c3ccccc3)n2)c2nn[nH]c2n1 [Example 33, 7-((1-Phenyl-1H-pyrazol-3-yl)methyl)-3H-[1,2,3]triazolo[4,5-b]pyridin-5-amine] | 101 to 999 | 101 to 999 |
| Nc1cc(Cc2cnn(-c3cccc(COc4ccccc4)c3)c2)c2nn[nH]c2n1 [Example 36, 7-((1-(3-(Phenoxymethyl)phenyl)-1H-pyrazol-4-yl)methyl)-3H-[1,2,3]triazolo[4,5-b]pyridin-5-amine] | 101 to 999 | 1 to 100 |
| Nc1cc(Cc2cnn(Cc3ccc(-c4ccccc4)cc3)c2)c2nn[nH]c2n1 [Example 39, 7-((1-([1,1′-Biphenyl]-4-ylmethyl)-1H-pyrazol-4-yl)methyl)-3H-[1,2,3]triazolo[4,5-b]pyridin-5-amine] | 101 to 999 | 1 to 100 |
| Nc1cc(Cc2cnn(CCc3ccccc3)c2)c2nn[nH]c2n1 [Example 40, 7-((1-Phenethyl-1H-pyrazol-4-yl)methyl)-3H-[1,2,3]triazolo[4,5-b]pyridin-5-amine] | 1 to 100 | 1 to 100 |
| Nc1cc(Cc2cnn(Cc3cccc4ccccc34)c2)c2nn[nH]c2n1 [Example 41, 7-((1-(Naphthalen-1-ylmethyl)-1H-pyrazol-4-yl)methyl)-3H-[1,2,3]triazolo[4,5-b]pyridin-5-amine] | 1 to 100 | 1 to 100 |
| Nc1cc(Cc2cnn(Cc3ccc4ccccc4c3)c2)c2nn[nH]c2n1 [Example 42, 7-((1-(Naphthalen-2-ylmethyl)-1H-pyrazol-4-yl)methyl)-3H-[1,2,3]triazolo[4,5-b]pyridin-5-amine] | 1 to 100 | 1 to 100 |
| Cc1ccccc1Cn1cc(Cc2cc(N)nc3[nH]nnc23)cn1 [Example 43, 7-((1-(2-Methylbenzyl)-1H-pyrazol-4-yl)methyl)-3H-[1,2,3]triazolo[4,5-b]pyridin-5-amine] | 101 to 999 | 1 to 100 |
| Nc1cc(Cc2cnn(Cc3cccc(-c4ccccc4)c3)c2)c2nn[nH]c2n1 [Example 44, 7-((1-([1,1′-Biphenyl]-3-ylmethyl)-1H-pyrazol-4-yl)methyl)-3H-[1,2,3]triazolo[4,5-b]pyridin-5-amine] | 1 to 100 | 1 to 100 |
| Nc1cc(Cc2cnn(Cc3ccc(Cl)cc3)c2)c2nn[nH]c2n1 [Example 45, 7-((1-(4-Chlorobenzyl)-1H-pyrazol-4-yl)methyl)-3H-[1,2,3]triazolo[4,5-b]pyridin-5-amine] | 1 to 100 | 1 to 100 |
| Nc1cc(Cc2cnn(Cc3ccc(C(=O)O)cc3)c2)c2nn[nH]c2n1 [Example 46, 4-((4-((5-Amino-3H-[1,2,3]triazolo[4,5-b]pyridin-7-yl)methyl)-1H-pyrazol-1-yl)methyl)benzoic acid] | 1000 to 10000 | 1000 to 10000 |
| Nc1cc(Cc2cc(-c3ccccc3)no2)c2nn[nH]c2n1 [Example 48, 7-((3-Phenylisoxazol-5-yl)methyl)-3H-[1,2,3]triazolo[4,5-b]pyridin-5-amine] | 101 to 999 | 101 to 999 |
| Nc1cc(Cc2cnn(C3CCCC3)c2)c2nn[nH]c2n1 [Example 54, 7-((1-Cyclopentyl-1H-pyrazol-4-yl)methyl)-3H-[1,2,3]triazolo[4,5-b]pyridin-5-amine] | 1 to 100 | 1 to 100 |
| Nc1cc(Cc2cnn(CC3CCCCC3)c2)c2nn[nH]c2n1 [Example 55, 7-((1-(Cyclohexylmethyl)-1H-pyrazol-4-yl)methyl)-3H-[1,2,3]triazolo[4,5-b]pyridin-5-amine] | 1 to 100 | 1 to 100 |
